Values of other authors, collected in patent publication US20130309199A1, “Novel Treatment of Multiple Sclerosis (MS)” (priority 2010, published 2013).

What was measured:
detrusor instability = details: cited from earlier work
[1] = test system: active multiple sclerosis lesions; details: gadolinium-enhanced MR images; cited from earlier work

Q: With CC(C(=O)O)c1ccc(-c2ccccc2)c(F)c1 (racemic) [Flurbiprofen] as the molecule, how does the side effects occurred (detrusor instability; compared with five on placebo, P less than 0.025) read?
A: 13 patients

Q: What about the tolerability (detrusor instability; in vivo) of the same molecule?
A: well tolerated by most patients

Q: What about the frequency (detrusor instability; vs placebo, P less than 0.001) of the same molecule?
A: significantly reduced

Q: What about the “detrusor-pressure rise during bladder filling” value (detrusor instability; vs placebo, P less than 0.01) of the same molecule?
A: significantly reduced

Q: What about the urge incontinence (detrusor instability; vs placebo, P less than 0.025) of the same molecule?
A: significantly reduced

Q: And the urgency (detrusor instability; vs placebo, P less than 0.025)?
A: significantly reduced

Q: Which “suppression of active multiple sclerosis lesions” value [1] does the source give for CC(C)Cc1ccc(C(C)C(=O)O)cc1 (stereo not shown) [Ibuprofen] here?
A: does not suppress
